Measured values published in patent US20110244060A1, “CARDIOPROTECTIVE EFFECTS OF NUTRACEUTICALS ISOLATED FROM NIGELLA SATIVA SEEDS” (UNIVERSITI PUTRA MALAYSIA, priority 2008, published 2011).
Marks after values point to notes of the source that are not given here.

Assays:
[1] = system: LDLR mRNA; experiment: LDLR mRNA expression in liver of experimental rats, quantitative real-time PCR; type: in vivo; conditions: rat liver, compared with untreated rats
[2] = system: Apo A-1 mRNA; experiment: Apo A-1 mRNA expression in rat liver, real-time PCR; conditions: rat liver (in vivo), compared to the control
[3] = system: Apo A-1 mRNA; experiment: Apo A-1 mRNA expression in HepG2 cells, real-time PCR; type: cell-based, human; conditions: HepG2 cells (in vitro), compared to the control
Method: (§1) For the determination of mRNA expression levels of LDLR, HMG-COAR, beta actin, Apo A-1, Apo E and Apo B100 by real time PCR, HepG2 cells were plated in 6-well plates at a density of 1.8×10^5 cells/well for 24 h. The cells were incubated with 10% HLPDS for 24 h with or without adding 2 μg/ml 25OH for another 24 h. The cells were treated with TQRF at two different doses, 80 and 50 μg/ml for 24 h, and with TQ at dose of 2 μg/ml Total RNA was isolated from HepG2 cells and rats liver tissues using RiboPure RNA Isolation Kit according to the manufacturer's instructions. […] Real-time quantitative PCR was performed using the Quantict Probe Real time PCR master mix according to the manufacturer's instructions. TaqMan Primers and probes specific for LDLR and HMG-COA genes were designed using the sequence entries from GenBank (Table. 1) Database and synthesis by Integrated DNA Technologies (IDT). Human beta-actin mRNA was used as housekeeping gene, TaqMan Primers and probes specific for human beta-actin gene was synthesis by Sigma Aldrich. The probes were labeled with FAM 3′ end and the fluorophores 6FAM at 5′ end. The real-time quantitative PCR reaction for each sample was carried out in triplicate and each experiment was repeated twice. […] Analysis of gene expression data was carried out by ΔΔCT method of relative quantification, according to Kenneth, et al, (2001) (32). […]

[4] = system: hydroxyl radical; experiment: Hydroxyl radical scavenging activity of rat plasma by ESR; type: in vivo; conditions: plasma of rats after 8 weeks of treatment, different doses
[5] = Toxicity parameters (ALT, GGT, urea, creatinine) of plasma from experimental rats; conditions: rat, in vivo
Method: In the present invention, the in vivo (rabbit study) antioxidant activity of NSP and NSO were measured using Selectra E manufacture Vital scientific machine (UK) and with commercial kits (Randox, Crumlin, Co. Antrim, UK). The present invention provides a method of the antioxidant activity of TQRF and TQ on .OH scavenging activity using ESR in experimental rats. The present invention provided clear understanding of the molecular mechanism by which TQRF and TQ exert their lowering cholesterol property. The regulatory effect of TQRF and TQ on genes involved in cholesterol metabolism such as LDLR, HMG-COAR, Apo A-1, Apo B100 and Apo E were investigated in vitro using HepG2 cells and in vivo using Sprague-Dawley rats. The present invention also provides evidence on the safety of selective doses of TQRF, TQ, NSO and NSP by measuring the toxicity parameters including Alanine aminotransferase (ALT), Gamma-glutamyltranspeptidase (GGT), urea and creatinine of plasma collected from experimental rats and rabbits.
Toxicity parameter including, ALT of plasma samples collected from experimental rats at baseline, middle of the treatment and the end f the treatment s were measured using analytical kit by kinetic UV assay using Roche Selectra E machine.

[6] = system: Apo E mRNA; experiment: Apo E mRNA expression in rat liver, real-time PCR; conditions: rat liver (in vivo), compared to the control
[7] = system: HMG-COAR mRNA; experiment: HMG-COAR mRNA expression in rat liver, real-time PCR; conditions: rat liver (in vivo), compared to the control
Method: At the end of the experiment, all the rats were dissected and liver tissues for RNA isolation were removed, snap frozen with liquid nitrogen within approximately 2 min of death, and stored at −80° C. for gene expression study. Total RNA was isolated from HepG2 cells and rats liver tissues using RiboPure RNA Isolation Kit according to the manufacturer's instructions. […] Real-time quantitative PCR was performed using the Quantict Probe Real time PCR master mix according to the manufacturer's instructions. TaqMan Primers and probes specific for LDLR and HMG-COA genes were designed using the sequence entries from GenBank (Table. 1) Database and synthesis by Integrated DNA Technologies (IDT). Human beta-actin mRNA was used as housekeeping gene, TaqMan Primers and probes specific for human beta-actin gene was synthesis by Sigma Aldrich. The probes were labeled with FAM 3′ end and the fluorophores 6FAM at 5′ end. The real-time quantitative PCR reaction for each sample was carried out in triplicate and each experiment was repeated twice. […] Analysis of gene expression data was carried out by ΔΔCT method of relative quantification, according to Kenneth, et al, (2001) (32). […]

[8] = system: LDLR mRNA; experiment: LDLR mRNA expression in HepG2 cells, quantitative real-time PCR; type: cell-based, human; conditions: TQ 2 μg/ml, compared to control cells
[9] = system: Apo B100 mRNA; experiment: Apo B100 mRNA expression in HepG2 cells, real-time PCR; type: cell-based, human; conditions: HepG2 cells (in vitro), compared to the control
Method: as §1

[10] = system: Apo B100 mRNA; experiment: Apo B100 mRNA expression in rat liver, real-time PCR; conditions: rat liver (in vivo), compared to the control
[11] = system: Sprague-Dawley rats fed with diets supplemented with 1% cholesterol; experiment: Hypocholesterolemic effect of TQRF and TQ in rats fed 1% cholesterol diet (plasma TC, LDLC); type: in vivo, rat; conditions: for TC levels in experimental rats: 1% cholesterol diet
[12] = system: HMG-COAR mRNA; experiment: HMG-COAR mRNA expression in HepG2 cells, real-time PCR; type: cell-based, human; conditions: HepG2 cells (in vitro), compared to the control
Method: as §1

[13] = system: Apo E mRNA; experiment: Apo E mRNA expression in HepG2 cells, real-time PCR; type: cell-based, human; conditions: HepG2 cells (in vitro), compared to the control
Method: as §1

CC1=CC(=O)C(C(C)C)=CC1=O [TQ, Thymoquinone]
increase of LDLR mRNA level ([1]; TQ 20 mg/kg body weight): two
increase of LDLR mRNA level ([1]; TQ 100 mg/kg body weight): seven
Apo A-I mRNA expression [2]: up-regulated
Apo A-I mRNA expression [3]: up-regulated
hydroxyl radical scavenging activity of plasma (ESR) [4]: able to directly scavenge .OH
toxicity (hepatic and kidney enzyme stability, organ integrity) [5]: non toxic
Apo E mRNA expression [6]: up-regulated
HMG-COAR mRNA expression [7]: down-regulated
increase of LDLR mRNA expression level [8]: two
Apo B100 mRNA expression [9]: down-regulated
Apo B100 mRNA expression [10]: down-regulated
TC levels in experimental rats ([11]; TQ 1 group (20 mg/kg oral emulsion), after 4 weeks): 1.49 ± 0.24 ^b mmol/l
TC levels in experimental rats ([11]; TQ 1 group (20 mg/kg oral emulsion), after 8 weeks): 1.48 ± 0.22 ^a, c mmol/l
TC levels in experimental rats ([11]; TQ 1 group (20 mg/kg oral emulsion), baseline): 0.85 ± 0.19 mmol/L
TC levels in experimental rats ([11]; TQ 2 group (50 mg/kg oral emulsion), after 4 weeks): 1.47 ± 0.31 ^b mmol/l
TC levels in experimental rats ([11]; TQ 2 group (50 mg/kg oral emulsion), after 8 weeks): 1.01 ± 0.34 ^a mmol/l
TC levels in experimental rats ([11]; TQ 2 group (50 mg/kg oral emulsion), baseline): 0.97 ± 0.05 mmol/L
TC levels in experimental rats ([11]; TQ 3 group (dose 20 mg/kg, oral emulsion), after 4 weeks): 1.41 ± 0.48 ^b mmol/l
TC levels in experimental rats ([11]; TQ 3 group (dose 20 mg/kg, oral emulsion), after 8 weeks): 0.94 ± 0.30 ^a mmol/l
TC levels in experimental rats ([11]; TQ 3 group (dose 20 mg/kg, oral emulsion), baseline): 0.87 ± 0.26 mmol/L
plasma low density lipoprotein cholesterol (LDLC) ([11]; rats, different doses for 8 weeks, compared to controlled group): significant decrease
HMG-COAR mRNA expression [12]: down-regulated
Apo E mRNA expression [13]: up-regulated
